Measurements: US12643881B2, “Bicyclic amine CDK12 inhibitors” (Incyte Corporation, priority 2021, dated 2026)

target: T1, CDK12 complexed with Cyclin K (Homo sapiens, UniProt Q9NYV4); assay: Alternative CDK Enzymatic Assays (HTRF, pre-incubation with compounds and 1 mM ATP), Example A2; type: biochemical; details: enzyme pre-incubated with compounds and 1 mM ATP for 60 minutes; reaction 120 minutes at 25° C.
T1 construct: GST (N)
Excerpt: Example A2. Alternative CDK Enzymatic Assays
The following activity of the CDK enzymes in complex with their respective cyclins we assayed: CDK1 complexed with Cyclin B1; CDK2 complexed with Cyclin E1; CDK4 complexed with Cyclin D1; CDK6 complexed with Cyclin D1; CDK6 complexed with Cyclin D3; CDK9 complexed with Cyclin T1; CDK7 complexed with Cyclin H/MAT1; CDK2 complexed with Cyclin A2; CDK5 complexed with p35; CDK12 complexed with Cyclin K; CDK13 complexed with Cyclin K. These in vitro enzyme activity are assayed using homogeneous time-resolved energy transfer (HTRF), which measures phosphorylation of a peptide substrate. The LANCER Ultra kinase assay (PerkinElmer) uses a ULight™-labeled EIF4E-binding protein 1 (THR37/46) peptide (DYSTTPGGTLFSTTPGTRI (SEQ ID NO: 1)) substrate and a Europium-labeled anti-phospho-4E-BP1 antibody (CDK2, CDK1, CDK4, CDK6, CDK9, CDK12, CDK13) or ULight™-labeled Myelin Basic Protein peptide (VTPRTPPP (SEQ ID NO: 2)) substrate and a Europium-labeled anti-phospho-MBP antibody (CDK7). Each CDK enzyme activity assays utilized human CDK co-expressed as N-terminal GST-tagged protein with its full length cyclin partner using a baculovirus expression system.
Enzyme was pre-incubated with compounds and 1 mM ATP for 60 minutes (CDK 1, 2, 4, 6, 9, 7, 12, 13) prior to the addition of ATP and Ulight-peptide (1 mM and 50 nM final, respectively), in assay buffer containing 50 mM HEPES pH 7.5, 1 mM EGTA, 10 mM MgCl2, 2 mM DTT, 0.05 mg/mL BSA, and 0.01% Tween 20. The reaction was then incubated for 120 minutes at 25° C. incubator. The reactions were stopped by the addition of EDTA and Europium labeled antibody, for a final concentration of 15 mM and 0.5-1.5 nM, respectively. HTRF signals were read after 15-120 minutes. A ratio of fluorescence transferred to the labeled substrate (665 nm) relative to fluorescence of the Europium donor (620 nm) represents the extent of phosphorylation. Ratios for treated wells were normalized to DMSO only (100% activity) and no enzyme (0% activity) controls. Normalized data was analyzed using a three or four parameter dose response curve to determine IC50 for each compound and are shown in Table B. Control reference inhibitors were included on each plate.

T1 sequence (Q9NYV4 whole entry): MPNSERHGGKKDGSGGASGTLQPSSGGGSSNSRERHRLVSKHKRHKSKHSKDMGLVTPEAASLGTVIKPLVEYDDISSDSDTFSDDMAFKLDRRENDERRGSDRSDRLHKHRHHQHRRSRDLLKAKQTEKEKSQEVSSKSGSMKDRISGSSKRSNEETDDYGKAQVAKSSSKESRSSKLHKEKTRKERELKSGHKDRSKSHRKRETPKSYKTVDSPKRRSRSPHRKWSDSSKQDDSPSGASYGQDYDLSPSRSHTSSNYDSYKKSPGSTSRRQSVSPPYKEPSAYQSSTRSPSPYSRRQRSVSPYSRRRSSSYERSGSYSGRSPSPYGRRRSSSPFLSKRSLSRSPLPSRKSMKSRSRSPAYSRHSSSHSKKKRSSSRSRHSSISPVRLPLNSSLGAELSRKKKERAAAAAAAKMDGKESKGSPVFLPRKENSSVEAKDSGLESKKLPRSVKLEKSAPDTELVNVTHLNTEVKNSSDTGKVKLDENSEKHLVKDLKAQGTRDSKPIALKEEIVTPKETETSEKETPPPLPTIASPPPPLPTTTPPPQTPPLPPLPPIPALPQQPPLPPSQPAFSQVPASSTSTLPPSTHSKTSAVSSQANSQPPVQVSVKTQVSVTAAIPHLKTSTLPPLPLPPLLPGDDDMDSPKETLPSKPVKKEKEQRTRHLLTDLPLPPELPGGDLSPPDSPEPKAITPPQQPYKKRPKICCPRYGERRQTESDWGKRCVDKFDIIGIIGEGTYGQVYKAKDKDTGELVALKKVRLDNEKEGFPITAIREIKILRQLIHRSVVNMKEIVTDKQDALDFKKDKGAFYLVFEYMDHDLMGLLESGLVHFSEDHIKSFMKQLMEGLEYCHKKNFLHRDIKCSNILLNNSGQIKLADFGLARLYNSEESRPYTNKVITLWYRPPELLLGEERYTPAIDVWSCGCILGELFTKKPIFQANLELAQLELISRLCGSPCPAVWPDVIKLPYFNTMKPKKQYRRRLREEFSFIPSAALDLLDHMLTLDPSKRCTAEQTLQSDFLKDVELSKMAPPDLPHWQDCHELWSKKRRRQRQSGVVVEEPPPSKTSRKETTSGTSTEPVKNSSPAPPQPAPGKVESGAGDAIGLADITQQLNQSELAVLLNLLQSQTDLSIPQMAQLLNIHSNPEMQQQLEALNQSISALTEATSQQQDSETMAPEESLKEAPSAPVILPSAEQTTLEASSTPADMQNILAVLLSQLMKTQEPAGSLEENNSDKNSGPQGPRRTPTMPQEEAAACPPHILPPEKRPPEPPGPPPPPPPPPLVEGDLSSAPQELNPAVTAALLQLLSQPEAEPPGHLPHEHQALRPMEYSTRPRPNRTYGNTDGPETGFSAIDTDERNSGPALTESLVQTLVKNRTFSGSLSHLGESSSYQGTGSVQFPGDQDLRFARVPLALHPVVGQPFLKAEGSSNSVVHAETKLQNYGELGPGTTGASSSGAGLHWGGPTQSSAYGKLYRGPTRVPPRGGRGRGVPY
T1 sequence (O75909 whole entry partner): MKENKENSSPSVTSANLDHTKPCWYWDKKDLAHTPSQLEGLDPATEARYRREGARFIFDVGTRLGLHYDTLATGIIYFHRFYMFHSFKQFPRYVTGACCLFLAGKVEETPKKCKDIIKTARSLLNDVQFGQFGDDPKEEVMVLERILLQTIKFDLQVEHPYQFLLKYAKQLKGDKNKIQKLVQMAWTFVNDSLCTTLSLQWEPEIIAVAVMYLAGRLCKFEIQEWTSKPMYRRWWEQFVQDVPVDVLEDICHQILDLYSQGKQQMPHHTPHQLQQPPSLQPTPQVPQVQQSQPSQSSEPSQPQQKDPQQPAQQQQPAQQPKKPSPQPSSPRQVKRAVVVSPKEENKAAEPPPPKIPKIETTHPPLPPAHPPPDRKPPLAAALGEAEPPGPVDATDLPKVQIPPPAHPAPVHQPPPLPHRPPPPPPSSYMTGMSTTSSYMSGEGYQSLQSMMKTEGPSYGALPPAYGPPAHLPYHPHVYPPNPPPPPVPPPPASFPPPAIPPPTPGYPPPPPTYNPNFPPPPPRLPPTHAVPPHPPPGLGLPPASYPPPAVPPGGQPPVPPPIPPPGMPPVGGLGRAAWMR

Row | Compound | IC50 [nM]
1 | C=CC(=O)N1[C@H](C)CN(c2nccn3c(N4C[C@H](F)C[C@@H](Nc5ncc(C(F)(F)F)cn5)C4)ncc23)C[C@@H]1C [Example 104, 1-((2S,6R)-4-(3-((3R,5R)-3-Fluoro-5-((5-(trifluoromethyl)pyrimidin-2-yl)amino)piperidin-1-yl)imidazo[1,5-a]pyrazin-8-yl)-2,6-dimethylpiperazin-1-yl)prop-2-en-1-one] | 50 to 500
2 | C=CC(=O)Nc1cc2nc(N3C[C@H](F)C[C@@H](Nc4ncc(C#N)cn4)C3)n(C)c2cc1C [Example 96, N-(2-((3R,5R)-3-((5-cyanopyrimidin-2-yl)amino)-5-fluoropiperidin-1-yl)-1,6-dimethyl-1H-benzo[d]imidazol-5-yl)acrylamide] | 50 to 500
3 | C=CC(=O)N1CCC12CN(c1nccn3c(N4C[C@H](F)C[C@@H](Nc5ncc(C(F)(F)F)cn5)C4)ncc13)C2 [Example 105, 1-(6-(3-((3R,5R)-3-Fluoro-5-((5-(trifluoromethyl)pyrimidin-2-yl)amino)piperidin-1-yl)imidazo[1,5-a]pyrazin-8-yl)-1,6-diazaspiro[3.3]heptan-1-yl)prop-2-en-1-one] | < 50
4 | C=CC(=O)Nc1cc2nc(N3C[C@H](F)C[C@@H](Nc4ncc(C(F)(F)F)cn4)C3)n(C)c2cc1N1CCCC1 [Example 136, N-(2-((3R,5R)-3-Fluoro-5-((5-(trifluoromethyl)pyrimidin-2-yl)amino)piperidin-1-yl)-1-methyl-6-(pyrrolidin-1-yl)-1H-benzo[d]imidazol-5-yl)acrylamide] | < 50
5 | C=CC(=O)Nc1cc2nc(N3C[C@H](F)C[C@@H](Nc4ncc(C(F)(F)F)cn4)C3)n(C)c2cc1COC [Example 133, N-(2-((3R,5R)-3-Fluoro-5-((5-(trifluoromethyl)pyrimidin-2-yl)amino)piperidin-1-yl)-6-(methoxymethyl)-1-methyl-1H-benzo[d]imidazol-5-yl)acrylamide] | < 50
6 | C=CC(=O)Nc1cc2nc(N3C[C@H](F)C[C@@H](Nc4ncc(C(F)(F)F)cn4)C3)n(C)c2cc1Cl [Example 134, N-(6-Chloro-2-((3R,5R)-3-fluoro-5-((5-(trifluoromethyl)pyrimidin-2-yl)amino)piperidin-1-yl)-1-methyl-1H-benzo[d]imidazol-5-yl)acrylamide] | < 50
7 | C=CC(=O)Nc1cc2nc(N3C[C@H](Nc4ncc(C(F)(F)F)cn4)C[C@@H](OC)C3)n(C)c2cc1C [Example 111, N-(2-((3R,5R)-3-Methoxy-5-((5-(trifluoromethyl)pyrimidin-2-yl)amino)piperidin-1-yl)-1,6-dimethyl-1H-benzo[d]imidazol-5-yl)acrylamide] | 50 to 500
8 | C=CC(=O)N1CCC(c2nccn3c(N4CCC[C@@H](Nc5ncc(C(F)(F)F)cn5)C4)ncc23)CC1 [Example 110, (R)-1-(4-(3-(3-((5-(Trifluoromethyl)pyrimidin-2-yl)amino)piperidin-1-yl)imidazo[1,5-a]pyrazin-8-yl)piperidin-1-yl)prop-2-en-1-one] | 50 to 500
9 | Cc1cc2c(cc1NC(=O)/C=C/C(C)(C)O)nc(N1C[C@H](F)C[C@@H](Nc3ncc(C(F)(F)F)cn3)C1)n2C [Example 112, (E)-N-(2-((3R,5R)-3-Fluoro-5-((5-(trifluoromethyl)pyrimidin-2-yl)amino)piperidin-1-yl)-1,6-dimethyl-1H-benzo[d]imidazol-5-yl)-4-hydroxy-4-methylpent-2-enamide] | > 500
10 | CC#CC(=O)Nc1cc2nc(N3C[C@H](F)C[C@@H](Nc4ncc(C(F)(F)F)cn4)C3)n(C)c2cc1C [Example 116, N-(2-((3R,5R)-3-Fluoro-5-((5-(trifluoromethyl)pyrimidin-2-yl)amino)piperidin-1-yl)-1,6-dimethyl-1H-benzo[d]imidazol-5-yl)but-2-ynamide] | 50 to 500
11 | C=CC(=O)Nc1cc2nc(N3C[C@H](F)C[C@@H](Nc4ncc(C(F)(F)F)cn4)C3)n(C)c2cc1C(=O)N1CCCC1 [Example 138, N-(2-((3R,5R)-3-Fluoro-5-((5-(trifluoromethyl)pyrimidin-2-yl)amino)piperidin-1-yl)-1-methyl-6-(pyrrolidine-1-carbonyl)-1H-benzo[d]imidazol-5-yl)acrylamide] | 50 to 500
12 | Cc1cc2c(cc1NC(=O)C#CC(C)(C)O)nc(N1C[C@H](F)C[C@@H](Nc3ncc(C(F)(F)F)cn3)C1)n2C [Example 113, N-(2-((3R,5R)-3-Fluoro-5-((5-(trifluoromethyl)pyrimidin-2-yl)amino)piperidin-1-yl)-1,6-dimethyl-1H-benzo[d]imidazol-5-yl)-4-hydroxy-4-methylpent-2-ynamide] | < 50
13 | C=CC(=O)N1CCCCC1c1nccn2c(N3CCC[C@@H](Nc4ncc(C(F)(F)F)cn4)C3)ncc12 (stereo partly drawn) [Example 108, 1-(2-(3-((R)-3-((5-(Trifluoromethyl)pyrimidin-2-yl)amino)piperidin-1-yl)imidazo[1,5-a]pyrazin-8-yl)piperidin-1-yl)prop-2-en-1-one] | 50 to 500

Other lines, results leading:

Row | IC50 [nM] | Compound
14 | < 50 | C=CC(=O)Nc1ccc2c(c1)nc(N1CCC[C@@H](Nc3ncc(C#N)c(N4CC[C@@H](N(C)C)C4)n3)C1)n2C [Example 142, N-(2-((R)-3-((5-cyano-4-((R)-3-(dimethylamino)pyrrolidin-1-yl)pyrimidin-2-yl)amino)piperidin-1-yl)-1-methyl-1H-benzo[d]imidazol-5-yl)acrylamide]
15 | < 50 | C=CC(=O)Nc1ccc2c(nc(N3CCC[C@@H](Nc4ncc(C(F)(F)F)cn4)C3)n2C)c1C [Example 156, (R)—N-(1,4-Dimethyl-2-(3-((5-(trifluoromethyl)pyrimidin-2-yl)amino)piperidin-1-yl)-1H-benzo[d]imidazol-5-yl)acrylamide]
16 | 50 to 500 | C=CC(=O)Nc1cc2nc(N3C[C@H](F)C[C@@H](Nc4ccc(C#N)cn4)C3)n(C)c2cc1C [Example 163, N-(2-((3R,5R)-3-((5-Cyanopyridin-2-yl)amino)-5-fluoropiperidin-1-yl)-1,6-dimethyl-1H-benzo[d]imidazol-5-yl)acrylamide]
17 | < 50 | C=CC(=O)Nc1ccc2c(c1)nc(N1CCC[C@@H](Nc3ncc(C(F)(F)F)c(N4CCN(C)CC4)n3)C1)n2C [Example 152, (R)—N-(1-Methyl-2-(3-((4-(4-methylpiperazin-1-yl)-5-(trifluoromethyl)pyrimidin-2-yl)amino)piperidin-1-yl)-1H-benzo[d]imidazol-5-yl)acrylamide]
18 | < 50 | C=CC(=O)Nc1ccc2c(c1)nc(N1CCC[C@@H](Nc3cc(OC)c(C#N)cn3)C1)n2C [Example 151, (R)—N-(2-(3-((5-Cyano-4-methoxypyridin-2-yl)amino)piperidin-1-yl)-1-methyl-1H-benzo[d]imidazol-5-yl)acrylamide]
19 | < 50 | C=CC(=O)Nc1cc2nc(N3CCC[C@@H](Nc4ncc(C(F)(F)F)cn4)C3)n(C)c2cc1C(C)C [Example 154, (R)—N-(6-Isopropyl-1-methyl-2-(3-((5-(trifluoromethyl)pyrimidin-2-yl)amino)piperidin-1-yl)-1H-benzo[d]imidazol-5-yl)acrylamide]
20 | 50 to 500 | C=CC(=O)Nc1cc2nc(N3C[C@H](F)C[C@@H](Nc4ncc(C#N)s4)C3)n(C)c2cc1C [Example 162, N-(2-((3R,5R)-3-((5-Cyanothiazol-2-yl)amino)-5-fluoropiperidin-1-yl)-1,6-dimethyl-1H-benzo[d]imidazol-5-yl)acrylamide]
21 | 50 to 500 | C=CC(=O)Nc1cc2nc(N3C[C@H](O)C[C@@H](Nc4ncc(C#N)cn4)C3)n(C)c2cc1C [Example 147, N-(2-((3R,5R)-3-((5-Cyanopyrimidin-2-yl)amino)-5-hydroxypiperidin-1-yl)-1,6-dimethyl-1H-benzo[d]imidazol-5-yl)acrylamide]
22 | 50 to 500 | C=CC(=O)Nc1cc2nc(N3C[C@H](F)C[C@@H](Nc4ncc(C#N)c(C)n4)C3)n(C)c2cc1C [Example 164, N-(2-((3R,5R)-3-((5-Cyano-4-methylpyrimidin-2-yl)amino)-5-fluoropiperidin-1-yl)-1,6-dimethyl-1H-benzo[d]imidazol-5-yl)acrylamide]
23 | 50 to 500 | C=CC(=O)Nc1cc2nc(N3C[C@H](F)C[C@@H](Nc4ncc(C(F)F)cn4)C3)n(C)c2cc1C [Example 160, N-(2-((3R,5R)-3-((5-(Difluoromethyl)pyrimidin-2-yl)amino)-5-fluoropiperidin-1-yl)-1,6-dimethyl-1H-benzo[d]imidazol-5-yl)acrylamide]
